The record followed here is patent US20030087963A1, “Methods of preparing and using 2-hydroxy derivatives of sibutramine and its metabolites” (priority 2001, published 2003).

For the first assay, the target named is T1, functional uptake of norepinephrine (NE) (Rattus norvegicus, UniProt Q63380).
T1 construct: synaptosomes prepared from rat whole brain, hypothalamus, or corpora striata, respectively; from tissue; host or cells: rat hypothalamus synaptosomes
T1 sequence (Q63380 1-617): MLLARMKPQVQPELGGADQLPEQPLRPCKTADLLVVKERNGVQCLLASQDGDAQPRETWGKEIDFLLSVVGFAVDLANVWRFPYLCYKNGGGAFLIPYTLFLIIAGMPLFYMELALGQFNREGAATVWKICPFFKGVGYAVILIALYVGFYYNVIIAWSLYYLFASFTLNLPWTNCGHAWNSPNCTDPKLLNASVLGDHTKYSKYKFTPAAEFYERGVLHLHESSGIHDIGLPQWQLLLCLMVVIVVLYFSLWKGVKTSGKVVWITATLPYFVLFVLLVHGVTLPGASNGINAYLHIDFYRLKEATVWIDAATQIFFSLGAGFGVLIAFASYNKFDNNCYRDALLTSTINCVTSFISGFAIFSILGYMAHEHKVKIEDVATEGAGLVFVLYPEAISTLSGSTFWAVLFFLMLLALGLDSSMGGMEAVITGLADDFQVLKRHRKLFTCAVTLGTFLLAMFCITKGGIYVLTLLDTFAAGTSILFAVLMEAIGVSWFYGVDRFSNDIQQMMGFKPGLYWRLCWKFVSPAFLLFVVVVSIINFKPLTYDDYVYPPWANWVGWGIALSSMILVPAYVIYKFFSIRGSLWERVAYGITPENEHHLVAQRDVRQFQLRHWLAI
Briefly: Inhibition of functional uptake of norepinephrine (NE) into synaptosomes from rat hypothalamus. Type of assay: biochemical.
Details: not given
How it is done:
(§1) The 2-hydroxy derivatives of the sibutramine metabolites N-desmethyl and N-didesmethylsibutramine (DMS and DDMS, respectively) were tested for their inhibition of functional uptake of serotonin (5-HT), norepinephrine (NE), or dopamine (DA), into synaptosomes prepared from rat whole brain, hypothalamus, or corpora striata, respectively, using methods known in the art. In addition, binding was determined at the nonselective muscarinic receptor and the […] from rat cerebral cortex and rat adipose tissue, respectively.
(§2) IC50 values (concentration inhibiting control activity by 50 percent) were then determined by nonlinear regression analysis of the inhibition curves and tabulated below.
As to `CN[C@H](CC(C)(C)O)C1(c2ccc(Cl)cc2)CCC1` [2-(R)-OH-DMS, (R)-(+)-4-[1-(4-Chloro-phenyl)-cyclobutyl]-2-methyl-4-methylamino-butan-2-ol], it took 23 nM to reach half-maximal inhibition (IC50).
`CN[C@@H](CC(C)(C)O)C1(c2ccc(Cl)cc2)CCC1` [2-(S)-OH-DMS] registered an IC50 of 310 nM.

Staying with this assay, now noted: synaptosomes from rat hypothalamus; read-out: IC50, NE functional uptake.
Consider `CC(C)(O)C[C@@H](N)C1(c2ccc(Cl)cc2)CCC1` [2-(R)-OH-DDMS, (R)-(−)-4-amino-[1-(4-chlorophenyl)cyclobutyl]-2-methyl-butan-2-ol], for which the IC50 was determined as 6.2 nM.
On to `CC(C)(O)C[C@H](N)C1(c2ccc(Cl)cc2)CCC1` [2-(S)-OH-DDMS, (S)-(+)-4-amino-[1-(4-chlorophenyl)cyclobutyl]-2-methyl-butan-2-ol], for which the IC50 came out at 71 nM.

The next assay concerns the target nonselective muscarinic receptor. Nature of the assay: Binding at the nonselective muscarinic receptor from rat cerebral cortex.
Details: not given
On the procedure:
as §1, §2
In the case of `CN[C@H](CC(C)(C)O)C1(c2ccc(Cl)cc2)CCC1` [2-(R)-OH-DMS, (R)-(+)-4-[1-(4-Chloro-phenyl)-cyclobutyl]-2-methyl-4-methylamino-butan-2-ol], the IC50 was found to be 8970 nM.
On the same count and under the same terms, the same measure for `CN[C@@H](CC(C)(C)O)C1(c2ccc(Cl)cc2)CCC1` [2-(S)-OH-DMS]: 4480 nM; for `CN1[C@@H]2CC[C@H]1C[C@@H](OC(=O)C(CO)c1ccccc1)C2` (stereo partly drawn) [Atropine, reference compound]: 0.38 nM.

The target in another assay is T2, functional uptake of serotonin (5-HT) (Rattus norvegicus, UniProt P31652).
T2 construct: synaptosomes prepared from rat whole brain, hypothalamus, or corpora striata, respectively; from tissue; host or cells: rat whole brain synaptosomes
T2 sequence (P31652 whole entry): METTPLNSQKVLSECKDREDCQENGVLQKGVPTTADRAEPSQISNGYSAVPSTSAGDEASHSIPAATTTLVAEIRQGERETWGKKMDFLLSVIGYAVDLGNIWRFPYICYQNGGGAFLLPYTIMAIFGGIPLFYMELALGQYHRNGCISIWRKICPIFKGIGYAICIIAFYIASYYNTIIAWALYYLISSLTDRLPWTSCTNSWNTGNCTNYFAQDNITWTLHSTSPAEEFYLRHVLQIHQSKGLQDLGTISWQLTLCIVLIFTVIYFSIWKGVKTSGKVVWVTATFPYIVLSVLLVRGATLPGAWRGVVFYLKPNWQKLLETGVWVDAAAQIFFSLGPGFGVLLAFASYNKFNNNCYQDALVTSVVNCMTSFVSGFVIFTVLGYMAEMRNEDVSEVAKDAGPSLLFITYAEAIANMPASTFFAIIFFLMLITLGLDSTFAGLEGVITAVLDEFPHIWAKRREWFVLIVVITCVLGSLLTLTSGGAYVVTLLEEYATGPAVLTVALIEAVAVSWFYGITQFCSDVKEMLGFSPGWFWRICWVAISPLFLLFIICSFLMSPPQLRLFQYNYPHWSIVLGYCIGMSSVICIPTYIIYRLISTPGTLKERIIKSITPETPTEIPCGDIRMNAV
Briefly: Inhibition of functional uptake of serotonin (5-HT) into synaptosomes from rat whole brain. In kind it is biochemical.
Details: not given
How it is done: as §1, §2
The compound `CC(C)(O)C[C@@H](N)C1(c2ccc(Cl)cc2)CCC1` [2-(R)-OH-DDMS, (R)-(−)-4-amino-[1-(4-chlorophenyl)cyclobutyl]-2-methyl-butan-2-ol] registered an IC50 of 7.2 nM.
With `CC(C)(O)C[C@H](N)C1(c2ccc(Cl)cc2)CCC1` [2-(S)-OH-DDMS, (S)-(+)-4-amino-[1-(4-chlorophenyl)cyclobutyl]-2-methyl-butan-2-ol], the 50% inhibitory concentration (IC50) came to 670 nM.
The same measure, in the same setting: the figure for `CN[C@H](CC(C)(C)O)C1(c2ccc(Cl)cc2)CCC1` [2-(R)-OH-DMS, (R)-(+)-4-[1-(4-Chloro-phenyl)-cyclobutyl]-2-methyl-4-methylamino-butan-2-ol] is 22 nM; for `CN[C@@H](CC(C)(C)O)C1(c2ccc(Cl)cc2)CCC1` [2-(S)-OH-DMS] it is 5400 nM.

The target of the next assay is T3, functional uptake of dopamine (DA) (Rattus norvegicus, UniProt P23977).
T3 construct: synaptosomes prepared from rat whole brain, hypothalamus, or corpora striata, respectively; from tissue; host or cells: rat corpora striata synaptosomes
T3 sequence (P23977 whole entry): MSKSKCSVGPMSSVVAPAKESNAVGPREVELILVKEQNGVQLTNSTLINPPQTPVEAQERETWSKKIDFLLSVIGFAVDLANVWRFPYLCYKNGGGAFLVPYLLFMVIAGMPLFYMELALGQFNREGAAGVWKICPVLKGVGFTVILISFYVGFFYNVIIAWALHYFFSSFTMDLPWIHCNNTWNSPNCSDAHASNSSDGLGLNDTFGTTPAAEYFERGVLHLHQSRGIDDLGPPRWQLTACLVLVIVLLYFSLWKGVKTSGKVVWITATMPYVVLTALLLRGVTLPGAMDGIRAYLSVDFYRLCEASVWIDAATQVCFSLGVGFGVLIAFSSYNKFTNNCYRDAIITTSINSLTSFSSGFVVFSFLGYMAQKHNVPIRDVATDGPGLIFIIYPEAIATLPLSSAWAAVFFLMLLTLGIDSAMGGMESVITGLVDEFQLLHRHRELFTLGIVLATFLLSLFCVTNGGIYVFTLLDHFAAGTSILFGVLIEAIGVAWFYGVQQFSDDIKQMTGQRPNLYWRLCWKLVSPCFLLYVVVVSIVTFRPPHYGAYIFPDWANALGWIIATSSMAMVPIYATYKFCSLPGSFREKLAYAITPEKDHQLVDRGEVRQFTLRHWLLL
Nature of the assay: Inhibition of functional uptake of dopamine (DA) into synaptosomes from rat corpora striata. In kind it is biochemical.
Details: not given
On the procedure:
as §1, §2
`CC(C)(O)C[C@@H](N)C1(c2ccc(Cl)cc2)CCC1` [2-(R)-OH-DDMS, (R)-(−)-4-amino-[1-(4-chlorophenyl)cyclobutyl]-2-methyl-butan-2-ol] registered an IC50 of 18 nM.
`CC(C)(O)C[C@H](N)C1(c2ccc(Cl)cc2)CCC1` [2-(S)-OH-DDMS, (S)-(+)-4-amino-[1-(4-chlorophenyl)cyclobutyl]-2-methyl-butan-2-ol] displayed a half-inhibitory concentration (IC50) of 59 nM.
In turn, `CN[C@H](CC(C)(C)O)C1(c2ccc(Cl)cc2)CCC1` [2-(R)-OH-DMS, (R)-(+)-4-[1-(4-Chloro-phenyl)-cyclobutyl]-2-methyl-4-methylamino-butan-2-ol] showed an IC50 of 48 nM.
The same measure, in the same setting: the figure for `CN[C@@H](CC(C)(C)O)C1(c2ccc(Cl)cc2)CCC1` [2-(S)-OH-DMS] is 370 nM.
